Measurements from patent US20130197023A1, “NEUROPROTECTION BY PHARMACOLOGICAL CHAPERONING OF NICOTINIC ACETYLCHOLINE RECEPTORS” (priority 2012, published 2013).
Where “and” joins values, the source holds several entries; their conditions need not be identical. Identical values can stand only once. Entries after “also recorded” stand apart in the source; their conditions may differ. Like-named read-outs stand apart in the source and are kept apart here.

Tests used:
[1] = target: T1, α4-GFPβ4-R348C nAChRs (Mus musculus, UniProt O70174+Q8R493, R348C); experiment: Whole-cell patch clamp of ACh currents in cortical neurons transfected with α4-GFPβ4-R348C; type: cell-based
T1 construct: expressed in transfected cells; host or cells: mouse cortical neurons (primary culture)
T1 sequence (O70174 31-629, stated change not applied): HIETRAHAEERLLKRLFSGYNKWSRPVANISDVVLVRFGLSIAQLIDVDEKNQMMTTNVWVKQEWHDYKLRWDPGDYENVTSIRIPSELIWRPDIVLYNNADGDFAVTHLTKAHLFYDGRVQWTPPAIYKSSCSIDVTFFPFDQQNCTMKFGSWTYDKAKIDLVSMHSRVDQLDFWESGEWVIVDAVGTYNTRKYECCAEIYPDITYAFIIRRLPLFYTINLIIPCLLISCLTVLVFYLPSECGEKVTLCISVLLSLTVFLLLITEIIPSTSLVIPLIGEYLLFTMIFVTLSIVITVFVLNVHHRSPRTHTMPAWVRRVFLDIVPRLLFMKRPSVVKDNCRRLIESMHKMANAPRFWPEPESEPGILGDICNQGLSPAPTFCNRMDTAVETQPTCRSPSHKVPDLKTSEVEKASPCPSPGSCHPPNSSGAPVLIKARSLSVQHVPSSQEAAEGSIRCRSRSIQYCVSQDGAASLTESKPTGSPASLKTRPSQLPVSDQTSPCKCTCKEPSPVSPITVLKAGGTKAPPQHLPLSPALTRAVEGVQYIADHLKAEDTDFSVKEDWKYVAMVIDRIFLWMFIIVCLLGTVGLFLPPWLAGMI
T1 sequence (Q8R493 21-495 R348C): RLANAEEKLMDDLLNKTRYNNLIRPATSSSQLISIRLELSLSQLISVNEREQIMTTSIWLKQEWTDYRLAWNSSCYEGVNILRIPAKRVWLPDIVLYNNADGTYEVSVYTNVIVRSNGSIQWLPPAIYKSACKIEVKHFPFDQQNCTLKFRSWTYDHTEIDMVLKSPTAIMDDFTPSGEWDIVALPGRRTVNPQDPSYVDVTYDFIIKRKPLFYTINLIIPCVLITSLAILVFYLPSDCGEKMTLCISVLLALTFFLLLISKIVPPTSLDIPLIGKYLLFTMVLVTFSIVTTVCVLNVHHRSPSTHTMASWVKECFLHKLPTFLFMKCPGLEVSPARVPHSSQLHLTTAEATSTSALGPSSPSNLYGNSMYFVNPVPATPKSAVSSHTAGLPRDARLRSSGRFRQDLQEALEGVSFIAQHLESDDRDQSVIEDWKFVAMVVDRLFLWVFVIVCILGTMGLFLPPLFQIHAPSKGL
Experimental: (§1) To correlate the fluorescence based insertion measurements with electrophysiological measurements, we performed whole-cell patch clamp recording from neurons in the preparation used for our fluorescence experiments, transfected either with α4-GFPβ4-WT or with α4-GFPβ4-R348C nAChRs. The successfully transfected neurons were identified with green fluorescence (FIG. 6. A, D of Richards et al.). Puffs of 300 μM ACh (0.1 s, 20 psi), typically give maximal currents in previous experiments and therefore provide a measure of nAChR number. ACh evoked inward currents in 100% (8/8) and 92% (11/12) of neurons transfected with α4-GFPβ4-WT and α4-GFPβ4-R348C nAChRs, respectively (FIG. 6B, 6E of Richards et al.). The α4-GFPβ4-R348C nAChR currents (120±33 pA, n=12) were only 40% of α4-GFPβ4-WT nAChR currents (310±72 pA, n=8) (p=0.02) (FIG. 6C of Richards et al.). Because variations among the size of neurons could complicate the data, we calculated current density (dividing ACh currents divided by membrane capacitance). The current density of […] (16.3±2.1 pA/pF, n=8) (p=0.001) (FIG. 6F of Richards et al.). Thus in cortical neurons, the R348C mutation produces a fairly consistent ˜2-fold decrease in α4β4-insertion rate and ˜2.5 fold decrease in ACh-induced currents.

[2] = target: T2, α4-GFPβ4-WT nAChRs (Mus musculus, UniProt O70174+Q8R493); experiment: Whole-cell patch clamp of ACh currents in cortical neurons transfected with α4-GFPβ4-WT; type: cell-based
T2 construct: expressed in transfected cells; host or cells: mouse cortical neurons (primary culture)
T2 sequence (O70174 31-629): as the sequence (O70174 31-629, stated change not applied) above
T2 sequence (Q8R493 21-495): as the sequence (Q8R493 21-495 R348C) above, with C328R counted along it
Experimental: as §1

[3] = test system: ATF6; type: cell-based, mouse
Experimental: (§2) Mouse Neuro-2a cells were cultured using standard tissue culture techniques and maintained in 45% DMEM, 45% OptiMEM and 10% FBS. Plasmid concentrations used for transfection were as follows: 500 ng of each nAChR subunit, 75 ng of pCS2-mcherry, 250 ng of Sec24D constructs, 100 ng of pDsRed2-ER, 250 ng of GaIT-eCFP and 500 ng of ATF6-eGFP. 90,000 cells were plated in poly-D-lysine coated 35 mm MatTek glass bottom imaging dishes. The following day, plasmid DNA was mixed with cationic lipids by adding appropriate DNA concentrations to 4 μl of Expressfect transfection reagent in 200 μl DMEM final volume and incubated for 20 min at room temperature to form cationic lipid-DNA complexes. DMEM+DNA-lipid complexes were added to Neuro-2a cells in 1 ml of DMEM+10% FBS and incubated at 37° C. for 4 h. Dishes were rinsed 2× with DMEM, then filled with 3 ml of DMEM+10% FBS and incubated at 37° C. for 48 h. Nicotine, cytisine or DHβE was added at appropriate concentrations during the change of medium following 4 h incubation with Expressfect-plasmid DNA complexes.

[4] = test system: ER exit sites (ERES); type: cell-based, mouse
Experimental: as §2
Neuro-2a cells were co-transfected with 500 ng each of α4-mcherry and β2-wt nAChR subunits and 250 ng of the ERES marker, Sec24D-eGFP. Each cell was focused to a plane where the maximum ERES were visualized. Sequential images of eGFP and mcherry fluorescence were obtained and linearly unmixed. For quantification, ERES regions of interest (ROIs) were demarcated using intensity-based thresholding and counted for each cell using the particle analysis feature in ImageJ version 1.44 or later. The fluorescence intensity was obtained for each ERES body within the cells and average ERES intensity was plotted. Error bars for ERES measurements are ±standard error of mean (SEM) and p values are based on a 2-tailed t test.

[5] = test system: Neuro-2a cells; type: cell-based, mouse
Experimental: (§3) Neuro-2a cells were transfected with α4-eGFP (500 ng)+β2wt (500 ng)+GaIT-mcherry (250 ng) or pDSred2-ER (100 ng) and cells were incubated for 48 h with appropriate concentrations of nicotine, cytisine or DHβE.
Two color fluorescence signals were separated with a dichroic and optical filters aligned in the emission path where green and red emission was separately aligned to the two halves of an EMCCD. Post-acquisition processing of images used Metamorph to demarcate TGN bodies and to extract number, size and intensity statistics.

[6] = target: α4β2 nAChRs (Mus musculus, UniProt O70174+Q9ERK7)
Sequence of α4β2 nAChRs (O70174 31-629): as the sequence (O70174 31-629, stated change not applied) above
Sequence of α4β2 nAChRs (Q9ERK7 26-501): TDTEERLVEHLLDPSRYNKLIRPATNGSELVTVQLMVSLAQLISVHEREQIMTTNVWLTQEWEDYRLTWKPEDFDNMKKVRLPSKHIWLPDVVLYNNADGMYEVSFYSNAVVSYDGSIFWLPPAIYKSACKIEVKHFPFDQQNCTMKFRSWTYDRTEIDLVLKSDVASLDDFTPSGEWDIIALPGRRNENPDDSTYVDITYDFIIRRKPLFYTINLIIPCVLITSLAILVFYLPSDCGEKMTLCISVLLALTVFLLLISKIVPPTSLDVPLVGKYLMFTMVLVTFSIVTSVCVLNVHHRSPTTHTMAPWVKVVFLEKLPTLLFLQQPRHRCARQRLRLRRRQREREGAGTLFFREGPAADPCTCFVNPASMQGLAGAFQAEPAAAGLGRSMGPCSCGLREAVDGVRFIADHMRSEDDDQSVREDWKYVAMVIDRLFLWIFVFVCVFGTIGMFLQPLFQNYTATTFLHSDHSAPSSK
From the text: For NFRET experiments, Neuro-2a cells were transfected with GaIT-eCFP+α4-mcherry+β2-eGFP subunits. GaIT-eCFP was used to label the TG, TGN (Schaub et al., 2006). Cells transfected with α4-mcherryβ2wt or α4wtβ2-eGFP nAChRs were included in every imaging session to control for pixel saturation and spectral bleedthrough. Live cells were imaged using an Eclipse C1si laser scanning confocal microscope. During image acquisition, cells were focused to a plane where the GaIT-eCFP fluorescence was best visualized. Images with emission spectra for eCFP, eGFP and mcherry were acquired in 5-nm bins between 470 and 620 nm. 439, 488 and 561 nm laser lines were used to excite eCFP, eGFP and mcherry respectively. Images were linearly unmixed using reference spectra for eCFP, eGFP and mcherry with emission maxima at 477, 508 and 608 nm. Reference spectra were acquired from Neuro-2a cells transfected with either GaIT-eCFP or α4-mcherryβ2wt or α4wtβ2-eGFP during the same imaging session. Linear unmixing was used to separate all three emission spectra from each image. Linearly unmixed images were compiled into donor spectral bleed-through stacks, acceptor spectral bleed-through stacks, and sample image stacks.
The PixFRET ImageJ plugin was used to determine the eGFP and mcherry spectral bleedthrough (BT) values and to calculate the net FRET (nF) (equation 1) and normalized FRET (NFRET) at each pixel. With the background and bleed-through corrections set, the nF for each pixel as described by equation 1 was calculated and the data were presented as 32-bit images. nF was divided by the square root of eGFP and mcherry intensities (equation 2) to obtain the normalized FRET (NFRET) value at each pixel. FRET normalization was used to control for large differences in fluorophore expression within subcellular regions and between different cells in a dish.
where, nF=net FRET, IFRET=mcherry sensitized emission with 488 nm excitation, IeGFP=eGFP emission with 488 nm excitation, BTeGFP=spectral bleedthrough of eGFP emission into mcherry emission spectra at 488 nm excitation, Imcherry=mcherry emission with 561 nm excitation and BTmcherry=spectral bleedthrough of mcherry emission into eGFP emission spectra at 561 nm excitation. IFRET, IeGFP and Imcherry were obtained from Neuro-2a cells transfected with GaIT-eCFP+α4-mcherry+β2-eGFP. BTeGFP and BTmcherry values were obtained from Neuro-2a cells transfected with α4-mcherry+β2wt and α4wt+β2-eGFP respectively.
Histograms of NFRET (x-axis) versus number of pixels (y-axis) of each imaged cell were compiled for either the whole cell sections or the TG, TGN ROIs, demarcated by intensity-based thresholding of GaIT-eCFP fluorescence. Frequency histograms obtained in this way (omitting values of zero) were merged for all cells in each experimental group and fitted to two Gaussian components such that a minimum goodness of fit (R^2) value of 0.995 was achieved. Ratios of area under the curve for the two Gaussian components with high and low mean NFRET values were used to determine changes in receptor stoichiometry between experimental groups: NFRET histograms were fitted to Gaussian components, yielding the total pixel area under either the A1 (low mean NFRET fit) or A2 (high mean NFRET fit) components. For quantitative measurements of stoichiometry, we compared the fractional area (FA) for the low NFRET component in each case as given by the following equation:
where, FA=fractional area, A1=area under the curve for low mean NFRET Gaussian component and A2=area under the curve for high mean NFRET Gaussian component.
Due to variability resulting from cell passage number, we imaged untreated control cells on the same day to compare and evaluate the effects of drug exposure on stoichiometry.

[7] = test system: Neuro-2a cells; type: cell-based, mouse; remark: listed apart in the source
Experimental: as §3
In ImageJ, background was subtracted, and DSred2-ER fluorescence was thresholded and demarcated for each cell.

[8] = target: T3, α4-eGFPβ2-wt nAChRs (Mus musculus, UniProt O70174+Q9ERK7); type: cell-based
T3 construct: expressed in transfected cells; host or cells: mouse Neuro-2a cells
T3 sequence (O70174 31-629): as the sequence (O70174 31-629, stated change not applied) above
T3 sequence (Q9ERK7 26-501): as the sequence (Q9ERK7 26-501) above
Experimental: Neuro-2a cells were plated on 12 mm glass coverslips within 35 mm plastic bottom cell culture dishes. The following day, cells were transfected with 500 ng α4-eGFP and 500 ng β2-wt nAChR subunits. 24 to 48 hr later, glass coverslips were transferred to dishes on the microscope stage. Green fluorescence was visualized with an upright microscope (BX50WI, Olympus) and UV illumination with appropriate excitation filters. Agonist-induced currents were tested at a holding potential of −65 mV using a focal, relatively rapid drug application system designed to minimize desensitization (Xiao et al., 2009). We applied drugs from the lowest to highest concentration at 3 min intervals to minimize desensitization. Whole-cell patch-clamp recordings were with a MultiClamp 700B amplifier, a 1322 analog-to-digital converter, and pCLAMP 9.2 software (all from Axon Instruments, Molecular Devices). Data were sampled at 10 kHz and filtered at 2 kHz.
The intrapipette solution contained (in mM): 135 potassium gluconate, 5 KCl, 5 EGTA, 0.5 CaCl2, 10 HEPES, 2 Mg-ATP, and 0.1 GTP; the pH was adjusted to 7.2 with Tris base and the osmolarity to 300 mOsm with sucrose. The extracellular solution contained (in mM): 140 NaCl, 5 KCl, 2 CaCl2, 1 MgCl2, 10 HEPES, and 10 glucose; pH was adjusted to 7.3 with Tris base. The Nernst potential for Cl^− in the intrapipette solution is −82.9 mV. The bath was continuously perfused with extracellular solution (ECS) at room temperature (23±1° C.). The patch electrodes had resistances of 5 to 8 MΩ. The junction potential between the patch pipette and the bath solutions was nulled just before forming a gΩ seal. Series resistance was monitored and compensated by 70-80% throughout recordings. The data were ignored if the series resistance (15-30 MΩ) changed by >20% during the recording session.

[9] = target: T3, α4-eGFPβ2-wt nAChRs; type: cell-based; remark: listed apart in the source
From the text: Details of the quantification method have been previously described (Srinivasan et al., 2011). Briefly, PM fluorescence was extracted as follows: Raw TIRF images were converted to background-subtracted images and the ER fluorescence was thresholded and selected. ER fluorescence was then subtracted from the original image to generate images with PM fluorescence signals. These procedures yielded a dataset of several hundred thousand pixel intensities over the 15-50 cells in each experimental group. Fluorescence intensities are simply the sum of pixel values for either the PM or the ER or the ER+PM (using whole TIRF footprint images). Mean PM fluorescence intensity was derived by dividing the total fluorescence intensity for each experimental group by the number of imaged cells and normalized to intensity of untreated cells. Ratios of fluorescence intensities for the whole TIRF footprint (ER+PM) to ER were used to determine the post-Golgi fraction of receptors. For PM integrated density measurements, rather than plotting SEMs (which would be indistinguishably small on the plots), we have used “error bars” to depict 99% confidence intervals based on a two-tailed t-test. Measurements from drug treated cells were normalized to values of untreated cells imaged on the same day. DHβE TIRF experiments were performed on a different day from nicotine and cytisine experiments.

[10] = test system: NMDA receptor; conditions: in vivo; cited from earlier work
[11] = compared with untreated cells, 48 h
[12] = compared to untreated cells, 48 h exposure

Structure (SMILES): CC(=O)OCC[N+](C)(C)C [ACh]
- ACh evoked inward currents ([1]; 300 μM ACh puffs (0.1 s, 20 psi), α4-GFPβ4-R348C): 120±33 pA
- neurons in which ACh evoked inward currents ([1]; 300 μM ACh, α4-GFPβ4-R348C (11/12)): 92%
- current density (ACh currents divided by membrane capacitance) ([1]; 300 μM ACh, α4-GFPβ4-R348C as printed): 16.3±2.1 pA/pF
- ACh evoked inward currents ([2]; 300 μM ACh puffs (0.1 s, 20 psi), α4-GFPβ4-WT): 310±72 pA
- neurons in which ACh evoked inward currents ([2]; 300 μM ACh, α4-GFPβ4-WT (8/8)): 100%
- current density (ACh currents divided by membrane capacitance) ([2]; 300 μM ACh, α4-GFPβ4-WT as printed): 6.3±1.4 pA/pF

Structure (SMILES): O=c1cccc2n1C[C@@H]1CNC[C@H]2C1 [Cytisine, cytisine]
- reduction in the ratio of nuclear to whole cell ATF6-eGFP fluorescence [3]: ~25%
- increase in ERES fluorescence / formation of ERES [4]: ~2 fold
- Number of TGN bodies [5]: no effect
- effect on the average intensity of TGN bodies (in words) [5]: significantly reduced
- effect on the number of TGN bodies (in words) [5]: failed to significantly affect
- TG+TGN FA (fractional area of low NFRET component) [6]: 0.42
- whole cell FA (fractional area of low NFRET component) [6]: 0.30
- effect on peripheral ER area (in words) [7]: reduced
- reduction in the average ER area [7]: ~1.4 fold
- evoked currents as % of maximum currents induced by 500 μM nicotine [8]: < 0.1%
- fraction of the total receptor population activated [8]: < 0.1%
- increase in PM-localized nAChRs [9]: 3 fold and ~3.5 fold
- increase in the footprint/ER ratio [9]: ~1.5 fold and ~2 fold

Structure (SMILES): CO[C@H]1CC=C2CCN3CCC4=C(CC(=O)OC4)[C@]23C1 [DHβE, dihydro-β-erythroidine]
- reduction in the ratio of nuclear to whole cell ATF6-eGFP fluorescence ([3]; 10 or 100 μM, 48 h (both concentrations)): ~23%
- increase in ERES fluorescence / formation of ERES ([4]; compared to untreated control cells, co-expressed nAChRs): ~2 fold
- effect on the average intensity of TGN bodies (in words) [5, 11]: significantly reduced
- effect on the number of TGN bodies (in words) [5, 11]: failed to significantly affect
- TG+TGN FA (fractional area of low NFRET component) ([6]; 10 μM DHβE, untreated cells 0.53): 0.37
- whole cell FA (fractional area of low NFRET component) ([6]; 10 μM DHβE, untreated cells 0.54): 0.45
- effect on nAChR stoichiometry ([6]; concentrations ranging from 0.1 to 1 μM): did not affect
- effect on peripheral ER area (in words) ([7]; compared to untreated controls, 48 h): did not significantly affect
- nAChR activation (in words) [8]: activates no receptors
- effect on the footprint/ER ratio (in words) [9, 12]: no marked effects
- increase in the footprint/ER ratio [9, 12]: ~1.5 fold
- effect on PM-localized nAChRs (in words) ([9]; compared to untreated controls, 48 h exposure): small, but significant increase; also recorded: no marked effects

Structure (SMILES): CNC1(c2ccccc2Cl)CCCCC1=O (centres unmarked) [ketamine]
- time within which antidepressant effects become established [10]: 1 to 2 h
